Assay results published in paper PMC12592502, “Unraveling the mechanisms behind the enhanced efficacy of β-lactam-based sideromycins” (Communications Biology, 2025).

Key:
Assay in all cases: Membrane PBP binding assay, competition with Bocillin FL
PBP5 = PBP5 (Pseudomonas aeruginosa, UniProt G3XD74); settings: P. aeruginosa ATCC 27853 membranes
In short: (§1)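 Membrane extracts (25 to 40 μg) preincubated with increasing antibiotic concentrations 10 min at 30 °C, then labelled with 12.5 μM Bocillin FL for 20 min at 30 °C. PBPs resolved by SDS-PAGE, fluorescence band volumes quantified; IC50 by linear regression from at least two independent assays.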

PBP4 = PBP4 (Klebsiella pneumoniae, UniProt A0ACD7U7I2); settings: K. pneumoniae ATCC 13883 membranes
In short: as §1

PBP3 [1] = target: PBP3 (Klebsiella pneumoniae, UniProt A0A0H3GN85); settings: K. pneumoniae ATCC 13883 membranes
PBP3 (Klebsiella pneumoniae, UniProt A0A0H3GN85), sequence (A0A0H3GN85 entry or part of it): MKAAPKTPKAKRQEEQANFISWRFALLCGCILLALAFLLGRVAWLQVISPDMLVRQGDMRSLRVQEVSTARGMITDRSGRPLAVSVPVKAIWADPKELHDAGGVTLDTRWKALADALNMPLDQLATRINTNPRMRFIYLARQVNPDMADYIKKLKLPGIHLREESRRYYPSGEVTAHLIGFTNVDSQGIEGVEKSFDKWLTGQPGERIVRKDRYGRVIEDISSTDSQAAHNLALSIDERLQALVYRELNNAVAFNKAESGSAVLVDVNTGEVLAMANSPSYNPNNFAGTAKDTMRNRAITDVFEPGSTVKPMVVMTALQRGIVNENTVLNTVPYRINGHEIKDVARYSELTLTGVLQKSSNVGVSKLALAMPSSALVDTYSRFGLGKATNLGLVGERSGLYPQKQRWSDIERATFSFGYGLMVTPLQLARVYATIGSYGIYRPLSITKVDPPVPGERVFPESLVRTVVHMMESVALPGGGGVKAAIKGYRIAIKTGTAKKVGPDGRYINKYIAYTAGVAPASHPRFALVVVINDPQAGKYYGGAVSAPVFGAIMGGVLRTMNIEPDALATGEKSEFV
In short: as §1

PBP1b [2] = target: PBP1b (Acinetobacter baumannii, UniProt A0ABX6CHI7); settings: A. baumannii ATCC 19606 membranes
In short: as §1

PBP1b [3] = target: PBP1b (Pseudomonas aeruginosa, UniProt G3XD31); settings: P. aeruginosa ATCC 27853 membranes
PBP1b (Pseudomonas aeruginosa, UniProt G3XD31), sequence (G3XD31 entry or part of it): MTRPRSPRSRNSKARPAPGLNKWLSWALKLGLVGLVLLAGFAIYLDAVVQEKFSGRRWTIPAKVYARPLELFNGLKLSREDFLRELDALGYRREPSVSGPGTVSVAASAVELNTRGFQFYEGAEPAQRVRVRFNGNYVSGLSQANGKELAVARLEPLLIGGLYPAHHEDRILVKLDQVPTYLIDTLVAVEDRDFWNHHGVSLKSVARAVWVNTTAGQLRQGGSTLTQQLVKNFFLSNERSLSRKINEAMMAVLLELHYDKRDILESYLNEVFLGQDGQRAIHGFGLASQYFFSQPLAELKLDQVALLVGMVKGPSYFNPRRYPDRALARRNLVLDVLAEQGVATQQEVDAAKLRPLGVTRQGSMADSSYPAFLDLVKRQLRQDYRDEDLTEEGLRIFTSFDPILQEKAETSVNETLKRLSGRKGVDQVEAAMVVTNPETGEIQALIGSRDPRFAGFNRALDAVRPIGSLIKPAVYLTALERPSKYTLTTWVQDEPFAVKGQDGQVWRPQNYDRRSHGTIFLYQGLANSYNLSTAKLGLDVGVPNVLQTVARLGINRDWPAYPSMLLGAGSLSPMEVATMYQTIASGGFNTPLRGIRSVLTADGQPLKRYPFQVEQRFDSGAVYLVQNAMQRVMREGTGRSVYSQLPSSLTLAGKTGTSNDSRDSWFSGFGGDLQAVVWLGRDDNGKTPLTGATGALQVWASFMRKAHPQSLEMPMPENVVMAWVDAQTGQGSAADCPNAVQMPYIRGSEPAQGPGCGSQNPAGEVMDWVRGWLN
In short: as §1

PBP3 [4] = target: PBP3 (Acinetobacter baumannii, UniProt A0ABX6CK25); settings: A. baumannii ATCC 19606 membranes
PBP3 (Acinetobacter baumannii, UniProt A0ABX6CK25), sequence (A0ABX6CK25 1-610): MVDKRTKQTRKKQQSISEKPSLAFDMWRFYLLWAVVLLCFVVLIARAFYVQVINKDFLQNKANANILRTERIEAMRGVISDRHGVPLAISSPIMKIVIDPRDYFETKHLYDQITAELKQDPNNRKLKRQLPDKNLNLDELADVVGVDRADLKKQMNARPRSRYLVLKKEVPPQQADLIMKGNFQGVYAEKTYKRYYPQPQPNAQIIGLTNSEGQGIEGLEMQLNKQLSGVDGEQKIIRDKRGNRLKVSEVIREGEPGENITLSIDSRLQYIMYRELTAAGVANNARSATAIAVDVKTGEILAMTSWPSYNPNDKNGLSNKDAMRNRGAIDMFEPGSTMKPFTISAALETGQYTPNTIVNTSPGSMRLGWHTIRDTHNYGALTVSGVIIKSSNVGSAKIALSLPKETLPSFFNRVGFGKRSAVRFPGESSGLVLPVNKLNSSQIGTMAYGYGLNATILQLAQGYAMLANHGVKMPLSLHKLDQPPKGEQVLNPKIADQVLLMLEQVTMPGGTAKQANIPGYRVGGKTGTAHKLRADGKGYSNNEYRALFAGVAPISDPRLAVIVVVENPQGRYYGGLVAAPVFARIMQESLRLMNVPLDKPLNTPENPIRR
In short: as §1

PBP1a = PBP1a (Acinetobacter baumannii, UniProt A0ABX6CK30); settings: A. baumannii ATCC 19606 membranes
PBP1a, sequence (A0ABX6CK30 entry or part of it): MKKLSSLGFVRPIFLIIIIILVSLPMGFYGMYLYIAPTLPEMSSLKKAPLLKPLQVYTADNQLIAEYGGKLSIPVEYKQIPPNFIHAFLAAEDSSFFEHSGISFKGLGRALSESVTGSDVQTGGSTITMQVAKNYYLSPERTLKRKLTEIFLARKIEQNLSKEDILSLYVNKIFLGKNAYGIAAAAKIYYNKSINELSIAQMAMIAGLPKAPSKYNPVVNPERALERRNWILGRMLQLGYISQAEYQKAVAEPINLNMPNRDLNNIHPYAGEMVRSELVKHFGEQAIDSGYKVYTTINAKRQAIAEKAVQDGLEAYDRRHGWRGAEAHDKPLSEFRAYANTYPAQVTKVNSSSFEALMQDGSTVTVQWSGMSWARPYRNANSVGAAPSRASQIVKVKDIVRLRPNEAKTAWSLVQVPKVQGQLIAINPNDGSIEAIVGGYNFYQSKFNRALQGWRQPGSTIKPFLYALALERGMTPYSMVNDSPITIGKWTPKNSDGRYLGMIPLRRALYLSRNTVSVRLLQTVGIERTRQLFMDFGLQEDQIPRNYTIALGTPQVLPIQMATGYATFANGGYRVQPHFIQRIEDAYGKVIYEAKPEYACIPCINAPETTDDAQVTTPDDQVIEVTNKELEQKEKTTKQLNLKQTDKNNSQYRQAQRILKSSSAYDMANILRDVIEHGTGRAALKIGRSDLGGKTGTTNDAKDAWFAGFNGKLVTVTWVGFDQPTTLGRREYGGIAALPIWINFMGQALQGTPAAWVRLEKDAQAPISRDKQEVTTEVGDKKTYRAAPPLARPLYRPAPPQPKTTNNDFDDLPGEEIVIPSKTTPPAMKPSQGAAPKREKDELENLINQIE
In short: as §1

PBP5, sequence (G3XD74 entry or part of it): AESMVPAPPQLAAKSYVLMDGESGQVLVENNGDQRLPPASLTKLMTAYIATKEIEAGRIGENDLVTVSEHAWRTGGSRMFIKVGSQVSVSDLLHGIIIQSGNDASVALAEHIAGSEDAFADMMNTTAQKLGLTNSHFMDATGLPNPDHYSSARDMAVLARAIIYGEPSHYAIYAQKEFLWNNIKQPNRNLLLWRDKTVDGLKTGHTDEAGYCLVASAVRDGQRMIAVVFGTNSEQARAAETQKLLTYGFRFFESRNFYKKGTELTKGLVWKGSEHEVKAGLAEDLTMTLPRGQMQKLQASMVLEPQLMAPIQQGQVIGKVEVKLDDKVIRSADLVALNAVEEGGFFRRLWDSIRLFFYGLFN

N[C@@H](C(=O)N[C@@H]1C(=O)N2C(C(=O)O)=C(Cl)CC[C@H]12)c1ccccc1 [LOR, loracarbef, reference compound]
IC50 (PBP5): > 50 µM
IC50 (PBP4): 1030 ± 720 nM
IC50 (PBP3 [1]): 4.1 ± 2.4 µM
IC50 (PBP1b [2]): > 50 µM
IC50 (PBP1b [3]): 1800 ± 500 nM
IC50 (PBP3 [4]): 7.8 ± 0.8 µM
IC50 (PBP1a): > 50 µM
